Measured values published in US8865894B2, “Oxazolidin-2-one compounds and uses thereof” (Novartis AG, priority 2012, dated 2014).
Read-outs that look alike come from different tables or passages of the source.

Experiments:
[1] = target: T1, human PI3Kbeta p110 catalytic subunit (Rat-1 pBABEpuro Myr-HA-hp110 beta) (Homo sapiens, UniProt P42338); assay: Cellular assay PI3Kbeta (p-Akt(S473) SureFire, Rat-1_PI3beta cells); assay type: cell-based; conditions: p-Akt(S473), 1 h compound treatment; read-out: Rat1-PI3Kb/ IC50
T1 construct: Myr (myristoylation signal) (N); HA (N); expressed in transfected cells; host or cells: Rat-1
T1 sequence (P42338 whole entry): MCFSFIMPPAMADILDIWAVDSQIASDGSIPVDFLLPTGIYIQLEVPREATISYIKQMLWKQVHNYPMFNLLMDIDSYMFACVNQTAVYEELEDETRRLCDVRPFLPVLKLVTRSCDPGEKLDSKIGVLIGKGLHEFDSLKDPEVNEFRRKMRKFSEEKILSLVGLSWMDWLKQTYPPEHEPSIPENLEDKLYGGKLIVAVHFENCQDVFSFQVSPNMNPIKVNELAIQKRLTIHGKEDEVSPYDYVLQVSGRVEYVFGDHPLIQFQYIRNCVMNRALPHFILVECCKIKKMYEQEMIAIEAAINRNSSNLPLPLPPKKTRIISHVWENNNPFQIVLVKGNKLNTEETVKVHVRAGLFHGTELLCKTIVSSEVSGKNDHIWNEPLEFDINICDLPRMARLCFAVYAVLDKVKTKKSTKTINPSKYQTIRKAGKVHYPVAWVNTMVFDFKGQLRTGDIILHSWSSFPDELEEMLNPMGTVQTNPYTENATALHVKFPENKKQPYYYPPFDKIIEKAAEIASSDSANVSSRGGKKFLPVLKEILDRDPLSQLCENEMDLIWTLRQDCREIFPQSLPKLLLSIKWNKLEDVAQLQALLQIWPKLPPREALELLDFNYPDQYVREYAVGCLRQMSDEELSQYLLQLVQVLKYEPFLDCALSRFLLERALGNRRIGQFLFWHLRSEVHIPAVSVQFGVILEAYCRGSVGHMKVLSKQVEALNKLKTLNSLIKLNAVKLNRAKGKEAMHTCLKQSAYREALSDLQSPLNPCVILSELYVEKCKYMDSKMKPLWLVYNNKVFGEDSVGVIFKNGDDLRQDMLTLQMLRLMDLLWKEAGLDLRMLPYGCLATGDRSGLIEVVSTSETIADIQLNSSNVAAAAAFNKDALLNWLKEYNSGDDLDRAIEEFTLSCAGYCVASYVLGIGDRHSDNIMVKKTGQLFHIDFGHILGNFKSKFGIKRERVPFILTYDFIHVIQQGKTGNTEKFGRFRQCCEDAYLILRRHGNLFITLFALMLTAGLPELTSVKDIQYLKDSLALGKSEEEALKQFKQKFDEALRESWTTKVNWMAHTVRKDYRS
T1 sequence (Q63787 whole entry partner): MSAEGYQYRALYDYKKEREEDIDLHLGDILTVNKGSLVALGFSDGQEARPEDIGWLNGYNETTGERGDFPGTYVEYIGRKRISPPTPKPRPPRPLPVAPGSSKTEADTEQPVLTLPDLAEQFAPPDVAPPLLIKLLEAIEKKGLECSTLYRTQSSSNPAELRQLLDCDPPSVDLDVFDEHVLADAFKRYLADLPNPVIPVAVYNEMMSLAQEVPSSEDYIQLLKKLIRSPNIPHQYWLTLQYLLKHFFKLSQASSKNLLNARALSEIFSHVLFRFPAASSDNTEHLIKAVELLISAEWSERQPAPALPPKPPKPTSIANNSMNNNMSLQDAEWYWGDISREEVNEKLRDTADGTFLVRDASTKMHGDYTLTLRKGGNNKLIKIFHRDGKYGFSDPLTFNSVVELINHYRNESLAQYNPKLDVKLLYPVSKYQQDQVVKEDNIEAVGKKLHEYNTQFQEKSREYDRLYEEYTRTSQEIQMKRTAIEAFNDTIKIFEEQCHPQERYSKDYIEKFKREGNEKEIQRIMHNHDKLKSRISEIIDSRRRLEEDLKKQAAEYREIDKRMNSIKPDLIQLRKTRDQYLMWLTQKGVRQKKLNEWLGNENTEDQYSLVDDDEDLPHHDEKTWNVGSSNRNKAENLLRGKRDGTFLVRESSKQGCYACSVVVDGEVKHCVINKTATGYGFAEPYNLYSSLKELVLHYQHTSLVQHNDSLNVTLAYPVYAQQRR
Text: AlphaScreen (Amplified Luminescent Proximity Homogeneous Assay, ALPHA, Perkin Elmer) is a non-radioactive bead-based proximity assay technology to study biomolecular interactions in a homogenous microtiter plate format. The brand name SureFire denotes AlphaScreen assays that are adapted to quantify the phosphorylation of endogenous cellular proteins in cell lysates, by using matched antibody pairs, which consist of an anti-phospho-kinase and an anti-kinase antibody. The assay allows characterization of kinase signaling in cells as well as measurement of kinase inhibitor effects. The AlphaScreen technology provides several advantages over standard assay techniques such as ELISA, as it avoids time-consuming washing procedures and reduces plate handling. Furthermore, it is miniaturizable at least to a 384-well format and provides sensitivity down to the femtomolar range, dependent on the affinity of the antibodies included in the individual AlphaScreen SureFire assay kit. High sensitivity is reached by an intrinsic amplification mechanism, which involves production of singlet oxygen molecules. SureFire assay kits are commercially available for specific targets and include pairs of validated antibodies (PerkinElmer). This report describes common procedures applied for AlphaScreen SureFire assays and respective semi-automated steps for routine kinase inhibitor profiling in cell-based assays.
The Rat-1 cell lines stably overexpressing activated PI3K class I isoforms Rat-1 pBABEpuro Myr-HA-hp110 delta (Rat-1_PI3Kdelta) and Rat-1 pBABEpuro Myr-HA-hp110alpha (Rat-1_PI3Kalpha) and Rat-1 pBABEpuro Myr-HA-hp110 beta (Rat-1_PI3beta) were prepared as described (Maira S M, Stauffer F, Brueggen J, Furet P, Schnell C, Fritsch C, Brachmann S, Chène P, de Pover A, Schoemaker K, Fabbro D, Gabriel D, Simonen M, Murphy L, Finan P, Sellers W, García-Echeverría C (2008), Mol Cancer Ther. 7:1851-63 and Maira S M, Pecchi S, Brueggen J, Huh K, Schnell C, Fritsch C, Nagel T, Wiesmann M, Brachmann S, Dorsch M, Chène P, Schoemaker K, De Pover A, Menezes D, Fabbro D, Sellers W, García-Echeverría C, Voliva C F (2011), Mol. Cancer Ther., accepted). All cell lines were cultivated in complete growth medium (DMEM high glucose, 10% (v/v) fetal bovine serum, 1% (v/v) MEM NEAA, 10 mM HEPES, 2 mM L-glutamine, puromycin (10 μg/mL for Rat-1_PI3Kdelta and Rat-1_PI3Kalpha, 4 ug/mL for Rat-1_PI3beta), 1% (v/v) Pen/Strep) to 90% confluency at 37° C./5% CO2/90% humidity in a humidified CO2 incubator and were split twice a week.
The following materials were used for p-AKT(S473) detection in Rat-1 cell lysates: Dulbecco's modified Eagle's medium (DMEM) high glucose (Gibco Invitrogen, Basel, Switzerland, Cat. No. 41965), Heat Inactivated Fetal Bovine Serum, Qualified (HI FBS; Gibco Invitrogen, Basel, Switzerland, Lot. No. 16140), MEM non essential amino acids (NEAA; Gibco Invitrogen, Basel, Switzerland, Cat. No. 11140), HEPES (Gibco Invitrogen, Basel, Switzerland, Cat. No. 15630), Penicillin/Streptomycin (Pen/Strep, 100×; Gibco Invitrogen, Basel, Switzerland, Cat. No. 15140-122), L-Glutamine (Gibco Invitrogen, Basel, Switzerland, Cat. No. 25030), Puromycin (Sigma Aldrich, Buchs, Switzerland, Cat. No. P9620), DMSO (MERCK, Dietikon, Switzerland, Cat. No. 8.02912.2500), H2O, MilliQ-H2O unless otherwise stated (MILLIPORE QGARDOOR1, Millipore, Zug, Switzerland), Bovine serum albumine (BSA; Sigma Aldrich, Buchs, Switzerland Cat. No. A8412), SureFire p-Akt 1/2 (Ser473) Assay Kit (PerkinElmer, Schwerzenbach, Switzerland, Cat. No. TGRAS50K).
The p-Akt(S473) SureFire assay measures the phosphorylation of endogenous cellular Akt 1/2 at Ser473 in cell lysates. Using Rat-1 cells stably expressing myr-HA-tagged versions of the human PI3Kdelta, PI3Kalpha, or PI3Kbeta p110 catalytic subunit isoforms, the assay was developed as a two-plate protocol in a 384-well format.

mTOR = target: T2, mTOR (Mus musculus, UniProt Q9JLN9); assay: Cellular assay mTOR (phospho-T389 S6K1 SureFire in TSC1-/- MEF cells); assay type: cell-based
T2 construct: endogenous in cells; host or cells: TSC1-/- MEF (mouse embryo fibroblasts)
Text: A cell based assay (384-well format) was developed for determination of compound effects on cellular mTOR kinase activity in MEF (mouse embryo fibroblasts) cells derived from mice lacking TSC1 (Tuberosclerosis Complex1) a potent suppressor of mTOR kinase activity. Due to lack of TSC1 the mTOR kinase is constitutively activated resulting in permanent phosphorylation of Thr 389 of S6 kinase 1 (S6K1) which is one of the downstream targets of mTOR.
Using a SureFire Kit that enables to determine the phosphorylation of Thr389 on the S6K1 an assay was developed, validated and implemented in the Alpha-Screen format that allows the quantitative determination of phospho-T389 of S6K1 in cell lysates. […] These were in agreement with those values obtained with the biochemical mTOR ATP-binding assay enabling a quantitative comparison of potency of mTOR inhibitors.
TSC1−/− MEFs cells (Kwiatkowski, D. J., Zhang, H., Bandura, J. L., Heiberger, K. M., Glogauer, M., el-Hashemite, N., and Onda, H. (2002) Hum. Mol. Genet. 11, 525-534) were cultured in DMEM high glucose medium supplemented with 10% FBS (Invitrogen), 2 mM Glutamine and 1% (w/v) Penicillin/Streptomycin at 37° C., 5% CO2.
The SureFire kit for determination of P70S6kinase phosphorylation was purchased from Perkin Elmer (p70S6K p-T389, #TGR70S50K) and the assay was performed according to the instructions of the supplier and according to the generic method for SureFire assays. Shortly, 5 μL cell lysate per well were transferred to 384-well white proxy-plates (for luminescent readout) and mixed with […] and […] (final volume: 12 μL). After 3 h incubation in the dark at RT luminescence was read with the Envision Reader (Perkin Elmer). Untreated cells were used as control (high control) and cells treated with 3 μM BEZ235 were used as low control. The assay window between the signals obtained for the high and the low controls were defined as 100% and compound effects were expressed as percent inhibition. IC50 values were calculated from the dose response curves by graphical extrapolation.

[2] = TSC1-/- MEF cells, read-out: mTOR S6K(T389)_TSC1ko/ IC50

| Compound | IC50 [1] | IC50 (mTOR; [2]) | IC50 (mTOR; second value / 3 of the 4 values / 3 of the 5 values as per footnote, read-out: mTOR S6K(T389)_TSC1ko IC50, further individual values (footnotes)) |
| --- | --- | --- | --- |
| C[C@H]1COCCN1c1nc(-c2cnc(N)nc2C(F)(F)F)cc(N2C(=O)OC[C@@H]2C)n1 [Example 13, (S)-3-[2′-Amino-2-((S)-3-methyl-morpholin-4-yl)-4′-trifluoromethyl-[4,5′]bipyrimidinyl-6-yl]-4-methyl-oxazolidin-2-one] | 240 nM | 1950 nM | – |
| Nc1ncc(-c2cc(N3C[C@@H](CO)OC3=O)nc(N3CCOCC3)n2)c(C(F)(F)F)n1 [Example 14, (S)-3-(2′-Amino-2-morpholin-4-yl-4′-trifluoromethyl-[4,5′]bipyrimidinyl-6-yl)-5-hydroxymethyl-oxazolidin-2-one] | 157 nM | > 2270 nM | – |
| C[C@H]1[C@H](CO)OC(=O)N1c1cc(-c2cnc(N)nc2C(F)(F)F)nc(N2CCOCC2)n1 [Example 15, (4S,5R)-3-(2′-Amino-2-morpholin-4-yl-4′-trifluoromethyl-[4,5′]bipyrimidinyl-6-yl)-5-hydroxymethyl-4-methyl-oxazolidin-2-one] | 114 nM | 727 nM | > 2270 nM |
| C[C@H]1CN(c2cc(-c3cnc(N)nc3C(F)(F)F)nc(N3CCOCC3)n2)C(=O)O1 [Example 16, (S)-3-(2′-Amino-2-morpholin-4-yl-4′-trifluoromethyl-[4,5′]bipyrimidinyl-6-yl)-5-methyl-oxazolidin-2-one] | 160 nM | 942 nM | – |
| [2H]C1([2H])OC([2H])([2H])C([2H])([2H])N(c2nc(-c3cnc(N)nc3C(F)(F)F)cc(N3C(=O)OC[C@@H]3C)n2)C1([2H])[2H] [Example 17, (S)-3-(2′-amino-2-D8-morpholino-4′-(trifluoromethyl)-[4,5′-bipyrimidin]-6-yl)-4-methyloxazolidin-2-one] | 171 nM | 867 nM | – |
| C[C@H]1OC(=O)N(c2cc(-c3cnc(N)nc3C(F)(F)F)nc(N3CCOCC3)n2)[C@H]1CO [Example 18, (4S,5R)-3-(2′-Amino-2-morpholin-4-yl-4′-trifluoromethyl-[4,5′]bipyrimidinyl-6-yl)-4-hydroxymethyl-5-methyl-oxazolidin-2-one] | 88 nM | 794 nM | – |
| C[C@H]1[C@@H](CO)OC(=O)N1c1cc(-c2cnc(N)nc2C(F)(F)F)nc(N2CCOCC2)n1 [Example 19, (4S,5S)-3-(2′-Amino-2-morpholin-4-yl-4′-trifluoromethyl-[4,5′]bipyrimidinyl-6-yl)-5-hydroxymethyl-4-methyl-oxazolidin-2-one] | 71 nM | 423 nM | – |

The remaining lines, values ahead:

| IC50 [1] | IC50 (mTOR; [2]) | IC50 (mTOR; second value / 3 of the 4 values / 3 of the 5 values as per footnote, read-out: mTOR S6K(T389)_TSC1ko IC50, further individual values (footnotes)) | Compound |
| --- | --- | --- | --- |
| 124 nM | > 2270 nM | – | Nc1ncc(-c2cc(N3C[C@H](CO)OC3=O)nc(N3CCOCC3)n2)c(C(F)(F)F)n1 [Example 20, (R)-3-(2′-Amino-2-morpholin-4-yl-4′-trifluoromethyl-[4,5′]bipyrimidinyl-6-yl)-5-hydroxymethyl-oxazolidin-2-one] |
| 46 nM | 942 nM | – | Nc1ncc(-c2cc(N3C(=O)O[C@H]4COC[C@H]43)nc(N3CCOCC3)n2)c(C(F)(F)F)n1 [Example 21, (3aR,6aR)-3-(2′-amino-2-morpholino-4′-(trifluoromethyl)-[4,5′-bipyrimidin]-6-yl)-tetrahydrofuro[3,4-d]oxazol-2(3H)-one] |
| 27 nM | 1110 nM | – | C[C@H]1[C@@H](CCO)OC(=O)N1c1cc(-c2cnc(N)nc2C(F)(F)F)nc(N2CCOCC2)n1 [Example 23, (4S,5R)-3-(2′-Amino-2-morpholino-4′-(trifluoromethyl)-[4,5′-bipyrimidin]-6-yl)-5-(2-hydroxyethyl)-4-methyloxazolidin-2-one] |
